“Also recorded” adds a separate entry of the source.
What was measured:
[1] = target: T1, megalin (Rattus norvegicus, UniProt P98158); assay: QCM method: binding ability to immobilized megalin (Reference Example 1); parameters: purified megalin from rat kidneys according to the method described in NPL 5 was used as the megalin; from tissue; host or cells: rat kidney; conditions: megalin protein immobilized crystal, colistin 240 μg, gentamicin 4000 μg, vancomycin 1600 μg, cisplatin 400 μg, tenofovir 1200 μg
T1 sequence (P98158 26-4660): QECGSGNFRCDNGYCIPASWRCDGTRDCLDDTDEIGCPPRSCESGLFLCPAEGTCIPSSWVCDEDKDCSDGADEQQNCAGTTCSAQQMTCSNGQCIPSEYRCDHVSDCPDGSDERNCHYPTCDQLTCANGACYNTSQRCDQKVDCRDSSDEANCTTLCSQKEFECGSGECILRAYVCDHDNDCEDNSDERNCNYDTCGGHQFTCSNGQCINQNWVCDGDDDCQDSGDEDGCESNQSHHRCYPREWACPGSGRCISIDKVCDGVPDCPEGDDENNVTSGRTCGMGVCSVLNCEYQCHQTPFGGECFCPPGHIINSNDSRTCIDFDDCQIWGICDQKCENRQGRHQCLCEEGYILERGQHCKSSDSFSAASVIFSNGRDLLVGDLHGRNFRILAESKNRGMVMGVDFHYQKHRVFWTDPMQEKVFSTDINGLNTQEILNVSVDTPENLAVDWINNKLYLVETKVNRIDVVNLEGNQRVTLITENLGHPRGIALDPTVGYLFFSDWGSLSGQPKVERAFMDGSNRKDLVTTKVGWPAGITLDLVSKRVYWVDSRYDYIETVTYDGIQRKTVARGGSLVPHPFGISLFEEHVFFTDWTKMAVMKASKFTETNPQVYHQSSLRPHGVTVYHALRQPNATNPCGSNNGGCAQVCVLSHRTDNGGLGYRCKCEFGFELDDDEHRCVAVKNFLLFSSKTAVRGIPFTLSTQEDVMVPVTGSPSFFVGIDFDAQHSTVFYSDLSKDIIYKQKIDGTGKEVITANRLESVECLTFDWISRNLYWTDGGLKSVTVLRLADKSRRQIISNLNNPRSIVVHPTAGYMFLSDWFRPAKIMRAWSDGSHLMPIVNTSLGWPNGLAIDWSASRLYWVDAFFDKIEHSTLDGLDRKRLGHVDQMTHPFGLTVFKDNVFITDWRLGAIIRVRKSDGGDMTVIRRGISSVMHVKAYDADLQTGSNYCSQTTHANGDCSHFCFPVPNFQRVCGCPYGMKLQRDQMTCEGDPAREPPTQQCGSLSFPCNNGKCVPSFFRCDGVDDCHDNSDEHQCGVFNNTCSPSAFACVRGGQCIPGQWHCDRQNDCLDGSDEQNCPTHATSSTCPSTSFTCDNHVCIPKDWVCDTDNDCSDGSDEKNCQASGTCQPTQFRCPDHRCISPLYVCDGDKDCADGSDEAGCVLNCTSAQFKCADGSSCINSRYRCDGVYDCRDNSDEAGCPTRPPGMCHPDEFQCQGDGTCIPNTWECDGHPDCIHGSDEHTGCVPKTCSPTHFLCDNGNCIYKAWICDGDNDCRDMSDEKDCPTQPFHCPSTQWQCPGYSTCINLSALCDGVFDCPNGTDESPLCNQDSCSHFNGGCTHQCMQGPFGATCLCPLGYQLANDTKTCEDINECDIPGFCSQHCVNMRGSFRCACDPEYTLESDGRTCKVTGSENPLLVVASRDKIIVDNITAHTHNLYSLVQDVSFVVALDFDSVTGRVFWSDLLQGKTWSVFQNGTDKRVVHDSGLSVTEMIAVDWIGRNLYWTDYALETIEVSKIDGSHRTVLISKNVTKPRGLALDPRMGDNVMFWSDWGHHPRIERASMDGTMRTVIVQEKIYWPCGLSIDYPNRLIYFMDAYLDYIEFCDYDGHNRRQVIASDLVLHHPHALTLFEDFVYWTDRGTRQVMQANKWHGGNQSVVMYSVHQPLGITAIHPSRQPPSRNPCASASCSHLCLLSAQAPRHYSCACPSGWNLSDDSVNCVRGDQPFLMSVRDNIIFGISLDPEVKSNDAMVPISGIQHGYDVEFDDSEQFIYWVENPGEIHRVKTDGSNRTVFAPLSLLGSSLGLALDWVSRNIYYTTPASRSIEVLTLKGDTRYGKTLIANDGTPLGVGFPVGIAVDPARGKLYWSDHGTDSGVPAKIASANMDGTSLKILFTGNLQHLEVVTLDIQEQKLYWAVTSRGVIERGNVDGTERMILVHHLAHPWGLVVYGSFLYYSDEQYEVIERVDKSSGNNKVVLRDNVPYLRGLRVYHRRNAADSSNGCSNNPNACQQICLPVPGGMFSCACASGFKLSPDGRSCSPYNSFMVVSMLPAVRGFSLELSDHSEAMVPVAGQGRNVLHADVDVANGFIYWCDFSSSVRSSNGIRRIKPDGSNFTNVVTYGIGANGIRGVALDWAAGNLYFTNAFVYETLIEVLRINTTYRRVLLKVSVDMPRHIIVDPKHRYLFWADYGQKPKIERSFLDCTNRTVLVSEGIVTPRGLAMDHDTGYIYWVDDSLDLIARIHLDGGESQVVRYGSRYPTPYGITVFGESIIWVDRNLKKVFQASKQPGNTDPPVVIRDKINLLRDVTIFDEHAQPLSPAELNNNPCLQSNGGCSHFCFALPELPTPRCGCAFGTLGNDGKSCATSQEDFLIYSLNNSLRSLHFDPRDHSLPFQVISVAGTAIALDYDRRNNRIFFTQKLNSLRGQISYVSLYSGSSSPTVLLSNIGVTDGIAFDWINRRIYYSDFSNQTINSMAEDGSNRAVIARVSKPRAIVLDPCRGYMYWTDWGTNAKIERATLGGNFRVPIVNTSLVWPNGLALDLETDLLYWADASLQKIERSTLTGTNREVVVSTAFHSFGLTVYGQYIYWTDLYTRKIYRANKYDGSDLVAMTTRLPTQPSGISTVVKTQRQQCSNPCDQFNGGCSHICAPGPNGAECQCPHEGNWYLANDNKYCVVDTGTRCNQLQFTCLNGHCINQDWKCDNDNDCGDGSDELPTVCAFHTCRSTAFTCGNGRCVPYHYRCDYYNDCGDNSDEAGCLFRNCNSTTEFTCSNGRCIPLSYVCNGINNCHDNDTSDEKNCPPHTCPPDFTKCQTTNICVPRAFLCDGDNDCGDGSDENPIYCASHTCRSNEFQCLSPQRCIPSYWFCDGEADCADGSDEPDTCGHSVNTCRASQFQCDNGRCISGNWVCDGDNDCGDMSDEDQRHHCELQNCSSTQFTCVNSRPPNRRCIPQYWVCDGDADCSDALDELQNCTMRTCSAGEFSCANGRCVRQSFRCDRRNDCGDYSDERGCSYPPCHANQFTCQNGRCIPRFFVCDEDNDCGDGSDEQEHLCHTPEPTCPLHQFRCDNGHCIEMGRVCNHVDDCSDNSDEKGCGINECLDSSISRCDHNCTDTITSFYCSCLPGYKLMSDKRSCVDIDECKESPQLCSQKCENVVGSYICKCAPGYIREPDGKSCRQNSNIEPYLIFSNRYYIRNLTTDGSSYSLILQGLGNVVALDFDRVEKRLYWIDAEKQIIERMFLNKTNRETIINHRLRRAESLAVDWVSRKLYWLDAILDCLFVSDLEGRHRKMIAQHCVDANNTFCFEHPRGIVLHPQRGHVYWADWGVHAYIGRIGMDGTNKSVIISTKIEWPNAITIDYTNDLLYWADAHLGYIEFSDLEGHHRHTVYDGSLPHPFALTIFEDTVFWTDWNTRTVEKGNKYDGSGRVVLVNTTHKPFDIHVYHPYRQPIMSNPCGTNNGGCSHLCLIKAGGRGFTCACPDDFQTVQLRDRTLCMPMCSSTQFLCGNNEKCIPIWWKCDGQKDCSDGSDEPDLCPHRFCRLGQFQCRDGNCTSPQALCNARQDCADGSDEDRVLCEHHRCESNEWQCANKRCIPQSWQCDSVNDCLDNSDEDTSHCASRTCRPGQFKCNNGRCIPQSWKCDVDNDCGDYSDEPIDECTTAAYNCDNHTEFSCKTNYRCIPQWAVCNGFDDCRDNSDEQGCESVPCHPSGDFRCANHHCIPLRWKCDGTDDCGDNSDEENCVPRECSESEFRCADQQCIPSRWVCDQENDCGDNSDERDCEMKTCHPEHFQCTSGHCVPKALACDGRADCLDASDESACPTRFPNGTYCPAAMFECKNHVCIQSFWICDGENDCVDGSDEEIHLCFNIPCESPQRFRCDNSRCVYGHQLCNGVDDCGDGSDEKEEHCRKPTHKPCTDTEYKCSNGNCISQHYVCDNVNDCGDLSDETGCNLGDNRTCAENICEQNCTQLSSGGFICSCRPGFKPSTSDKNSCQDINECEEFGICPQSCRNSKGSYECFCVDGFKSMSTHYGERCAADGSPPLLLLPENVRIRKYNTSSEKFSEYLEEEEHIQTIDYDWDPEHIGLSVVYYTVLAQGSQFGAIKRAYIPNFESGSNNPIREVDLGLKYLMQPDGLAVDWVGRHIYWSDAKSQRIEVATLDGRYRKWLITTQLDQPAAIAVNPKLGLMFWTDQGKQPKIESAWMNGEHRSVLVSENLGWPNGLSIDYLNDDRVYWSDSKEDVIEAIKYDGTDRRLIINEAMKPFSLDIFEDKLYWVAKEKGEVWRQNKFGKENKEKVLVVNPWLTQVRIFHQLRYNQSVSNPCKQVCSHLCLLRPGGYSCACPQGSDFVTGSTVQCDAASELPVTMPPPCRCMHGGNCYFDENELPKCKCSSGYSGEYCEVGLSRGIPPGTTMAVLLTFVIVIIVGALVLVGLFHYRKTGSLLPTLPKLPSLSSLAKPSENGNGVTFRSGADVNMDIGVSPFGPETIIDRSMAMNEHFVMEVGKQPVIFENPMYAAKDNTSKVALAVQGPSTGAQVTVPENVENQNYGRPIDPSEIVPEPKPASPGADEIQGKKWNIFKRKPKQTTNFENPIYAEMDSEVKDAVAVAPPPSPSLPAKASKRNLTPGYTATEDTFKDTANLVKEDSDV
Description: The binding ability of colistin, gentamicin, vancomycin, cisplatin, and tenofovir with respect to megalin was analyzed using the quartz crystal microbalance method (QCM method).
Regarding the immobilization of megalin protein using the Immobilization Kit for AFFINIX (registered trademark) (manufactured by Initium), according to the protocol recommended in the kit, a megalin protein solution adjusted to 12 to 14 μg/mL using Buffer A included in the kit was immobilized by being placed on the crystal installed in the holder.
In more detail, 8 μL of each drug solution was injected to the megalin protein-immobilized crystal placed in the surface of water containing 8 mL of buffer, and the frequency was measured. As a control, measurement was also performed in the same manner with respect to a crystal where the megalin protein was not immobilized. The measurement data was analyzed using dedicated analysis software AQUA (produced by Initium).

[2] = tested on: colistin-induced renal impairment; assay: Colistin nephropathy in rats, urinary NAG/CRE (Example 3)
Description: Cilastatin and colistin were co-administered to rats and it was investigated whether or not nephropathy due to colistin was reduced by the megalin ligand antagonistic action of cilastatin.
In evaluating the colistin nephropathy reduction effect due to cilastatin, a colistin solution and a cilastatin solution were prepared as follows.
In the preparation of the colistin solution, first, a colistin stock solution (colistin concentration: 10 mg/mL) was prepared by dissolving 360 mg of colistin sulfate in 30 mL of a saline solution. The colistin stock solution was sterilized by filtration with a 22 mm PVDF membrane and then stored at 4° C. and a colistin administration solution was prepared by diluting the solution with a saline solution before the colistin administration. […]
The concentrations of urinary β-D-N-acetyl-glucosaminidase (NAG) and creatinine (CRE) in the recovered urine were each measured using a measurement kit (product name: CREP 2 and BUNK, both were measured by Roche Diagnostics Co., Ltd.) using a discrete method automatic clinical chemistry analyzer (product name: COBAS INTEGRA 400 plus, manufactured by Roche Diagnostics Co., Ltd.), and the urinary NAG/CRE values of each test group were calculated.

[3] = tested on: ATCC25922 strain (E. coli standard strain); assay: Disk method anti-microbial activity (Reference Example 4); assay type: cell-based
Description: An ATCC25922 strain (E. coli standard strain) was cultured for 20 hours using Mueller Hinton agar (MHA) and then the cultured colonies were suspended in saline and adjusted to obtain a solution equivalent to McFarland turbidity standard 0.5. After uniformly coating and drying the microbial solution on the MHA, 10 μg of colistin, cilastatin, and colistin and cilastatin were each added to 6 mm Whatman filter paper discs, disposed at equal intervals on the MHA described above, and cultured for 20 hours at 37° C., and the blocking circles were compared.

[4] = tested on: proximal tubular cells; assay: Renal tubular cell damage by colistin in kidney specific mosaic-type megalin knockout mice (Reference Examples 2 and 3); assay type: in vivo, mice (apoE cre/megalin loxP)
Description: Renal tubular cell damage caused when colistin was administered to megalin mosaic-type knockout mice was analyzed.
First, 12-week-old kidney specific mosaic-type megalin knockout mice (apoE cre/megalin loxP) were used in the experiments (in these mice, genes expressing megalin in about 60% of proximal tubular cells were knocked out). With respect to these mice, the subcutaneous administration of colistin was performed over four days (30 mg/kg/day), after that, proximal tubular cells were analyzed and immunohistochemical staining was performed.
With the same method as in Reference Example 2, colistin was administered to renal-specific mosaic-type megalin knockout mice, after that, the proximal tubular cells were analyzed, and the expression of KIM-1 (Kidney Injury Molecule 1), which is an injury marker of proximal tubular cells, and the expression of megalin were confirmed using a fluorescent double staining method.

[5] = tested on: kidney tissue (renal tubular cell damage); assay: Nephrotoxicity caused by colistin in C57BL/6 mice, PAS staining and KIM-1 Western blot (Example 4)
Description: Division was made into a group in which 30 mg/kg/day of colistin was subcutaneously administered over four days to 12-week-old male C57BL/6 mice (colistin-administered group: colstin), a group in which 100 mg/kg/day of cilastatin was subcutaneously administered over four days in combination with the subcutaneous administration of 30 mg/kg/day of colistin over four days (colistin+cilastatin combination group: colstin+cilastatin), and, as a control, a group in which a physiological saline solution was subcutaneously administered over four days instead of colistin (saline group: saline), administration was performed in the same manner as the protocol of Reference Example 2 described above, after that, the kidney tissue was taken and histochemical staining (PAS staining) was performed.
Furthermore, using the extracted kidney tissue, the expression of KIM-1, which is a renal tubular cell damage marker, was confirmed by Western blot.

[6] = target: T1, megalin
From the text: Next, detailed description will be given of the present invention through the illustration of examples, and the like; however, the present invention is not limited thereto. In the following Examples and the like, purified megalin from rat kidneys according to the method described in NPL 5 was used as the megalin, cilastatin sodium (produced by Sigma-Aldrich Co. LLC.) was used as the cilastatin, colistin sulfate (produced by Sigma-Aldrich Co. LLC.) was used as the colistin, gentamicin produced by Sigma-Aldrich Co. LLC. was used as the gentamicin, vancomycin produced by Sigma-Aldrich Co. LLC. was used as the vancomycin, tenofovir produced by Sigma-Aldrich Co. LLC. was used as the tenofovir, and cisplatin produced by Bristol-Myers Co., Ltd., was used as the cisplatin.
The antagonism effect with respect to the binding of colistin to megalin due to cilastatin was investigated using the QCM method.
As a control, measurement and analysis were carried out in the same manner except that cilastatin was not injected (cilastatin injection amount: 0 μg).
The antagonistic action of cilastatin on the binding of gentamicin, vancomycin, cisplatin, and tacrolimus to megalin was investigated using the QCM method.
Specifically, the measurement and analysis of the frequency were carried out in the same manner as for Example 1 except that the injection amount of cilastatin was set to 4000 μg and 4000 μg of gentamicin was used instead of 240 μg of colistin.
In addition, the measurement and analysis of the frequency were carried out in the same manner as for Example 1 except that the injection amount of cilastatin was set to 5000 μg and 1000 μg of vancomycin was used instead of 240 μg of colistin.
In addition, the measurement and analysis of the frequency were carried out in the same manner as for Example 1 except that the injection amount of cilastatin was set to 10000 μg and 800 μg of cisplatin was used instead of 240 μg of colistin.
Furthermore, the measurement and analysis of the frequency were carried out in the same manner as for Example 1 except that the injection amount of cilastatin was set to 2000 μg and 160 μg of tacrolimus was used instead of 240 μg of colistin.

[7] = tested on: nephrotoxicity of cisplatin; conditions: rats, reported in PTL 2; cited from earlier work
[8] = 10 μg on 6 mm filter paper disc, MHA, 20 hours at 37° C.
[9] = colistin 30 mg/kg/day subcutaneous over four days

Compound: N.N.[Cl][Pt][Cl] [cisplatin]
- binding to megalin (frequency decrease after injection) [1]: binding to megalin was confirmed

Compound: colistin
- urinary NAG/CRE values relative to saline/saline group ([2]; saline/colistin group, fifth day, colistin total 20.5 mg/kg over 5 days into jugular vein): ≥ 4 times
- blocking circle / anti-microbial activity [3, 8]: a growth inhibition circle was formed
- blocking circle diameter [3, 8]: 13.5 mm
- binding to megalin (frequency decrease after injection) [1]: binding to megalin was confirmed
- KIM-1 expression in proximal tubular cells ([4]; colistin 30 mg/kg/day subcutaneous over four days, fluorescent double staining with megalin): KIM-1 was also expressed in the proximal tubular cells in which megalin, which remained without being knocked out, was expressed
- vacuoles in cytoplasm of proximal tubular cells expressing megalin versus megalin knocked out cells ([4]; colistin 30 mg/kg/day subcutaneous over four days, immunohistochemical staining): numerous vacuoles (arrows) were observed in the cytoplasm
- dependence of proximal renal tubular cell damage on megalin expression ([4]; mosaic-type megalin knockout mice): largely depended on the expression of megalin
- dilatation and cast formation of the tubules (PAS staining) [5, 9]: dilatation and cast formation of the tubules was observed
- expression of KIM-1 in kidney tissue (Western blot) [5, 9]: increased expression of KIM-1 was observed

Compound: CC1(C)C[C@@H]1C(=O)N/C(=C\CCCCSC[C@H](N)C(=O)O)C(=O)O [cilastatin, (Z)-7-[[(R)-2-amino-2-carboxyethyl]thio]-2-[[[(S)-2,2-dimethylcyclopropyl]carbonyl]amino]-2-heptenoic acid]
- inhibition of binding of tacrolimus to megalin protein ([6]; cilastatin 2000 μg before 160 μg tacrolimus): inhibited by cilastatin
- inhibition of binding of gentamicin to megalin protein ([6]; cilastatin 4000 μg before 4000 μg gentamicin): inhibited by cilastatin
- inhibition of binding of vancomycin to megalin protein ([6]; cilastatin 5000 μg before 1000 μg vancomycin): inhibited by cilastatin
- inhibition of binding of cisplatin to megalin protein ([6]; cilastatin 10000 μg before 800 μg cisplatin): inhibited by cilastatin
- inhibition of binding of colistin to megalin protein ([6]; cilastatin 800, 5000 or 10000 μg injected before 240 μg colistin): inhibited depending on the concentration of the cilastatin
- colistin-induced renal impairment ([2]; co-administration of cilastatin 100 mg/kg with colistin, rats): colistin-induced renal impairment was reduced
- nephrotoxicity of cisplatin on co-administration with cilastatin [7]: the nephrotoxicity was improved
- blocking circle / anti-microbial activity [3, 8]: a blocking circle was not formed and anti-microbial activity was not exhibited; also recorded: anti-microbial activity could not be seen
- influence on the anti-microbial activity of colistin ([3]; colistin and cilastatin on the same disc): does not affect the anti-microbial activity of colistin
- renal tubular cell damage caused by colistin, histologically and biochemically ([5]; cilastatin 100 mg/kg/day combined with colistin 30 mg/kg/day): remarkably improved

Compound: C[C@H](Cn1cnc2c(N)ncnc21)OCP(=O)(O)O [tenofovir]
- binding to megalin (frequency decrease after injection) [1]: not possible to find the binding

Compound: CN[C@H](CC(C)C)C(=O)N[C@H]1C(=O)N[C@@H](CC(N)=O)C(=O)N[C@H]2C(=O)N[C@H]3C(=O)N[C@H](C(=O)N[C@H](C(=O)O)c4cc(O)cc(O)c4-c4cc3ccc4O)[C@H](O)c3ccc(c(Cl)c3)Oc3cc2cc(c3O[C@@H]2O[C@H](CO)[C@@H](O)[C@H](O)[C@H]2O[C@H]2C[C@](C)(N)[C@H](O)[C@H](C)O2)Oc2ccc(cc2Cl)[C@H]1O [vancomycin]
- binding to megalin (frequency decrease after injection) [1]: binding to megalin was confirmed

Compound: C=CC[C@@H]1/C=C(\C)C[C@H](C)C[C@H](OC)[C@H]2O[C@@](O)(C(=O)C(=O)N3CCCC[C@H]3C(=O)O[C@H](/C(C)=C/[C@@H]3CC[C@@H](O)[C@H](OC)C3)[C@H](C)[C@@H](O)CC1=O)[C@H](C)C[C@@H]2OC [tacrolimus]
- binding to megalin (frequency decrease after injection) [1]: binding to megalin was confirmed

Compound: gentamicin
- binding to megalin (frequency decrease after injection) [1]: binding to megalin was confirmed
